Experimental data taken from ChEMBL document CHEMBL5543068, “Mitochondrial targeting derivatives of honokiol enhanced selective antitumor activity in NCI-H446 cells and decreased in vivo toxicity in Caenorhabditis elegans” (Eur J Med Chem, 2024).
Calls of active or inactive are those of the source. The rule behind the calls is not given here.

Legend:
[1] = Cytotoxicity against HBE (human bronchial epithelial) cells assessed as reduction in cell viability incubated for 48 hrs by MTT assay; type: toxicity, cell-based
[2] = Cytotoxicity against human HL7702 cells assessed as reduction in cell viability incubated for 48 hrs by MTT assay; type: toxicity, cell-based; details: HL7702 (L02) cells
NCI-H446 [3] = assay: Antiproliferative activity against human NCI-H446 cells assessed as reduction in cell viability incubated for 48 hrs by MTT assay; type: functional, cell-based; details: NCI-H446, 48 h
HepG2 = assay: Antiproliferative activity against human HepG2 cells assessed as reduction in cell viability incubated for 48 hrs by MTT assay; type: functional, cell-based; details: HepG2, 48 h
A549 = assay: Antiproliferative activity against human A549 cells assessed as reduction in cell viability incubated for 48 hrs by MTT assay; type: functional, cell-based; details: A549, 48 h
NCI-H446 [4] = assay: Induction of apoptosis in human NCI-H446 cells assessed as crumpled nuclei at 2 uM incubated for 24 hrs by DAPI staining based fluorescence inverted microscopic analysis; type: functional, cell-based
[5] = Selectivity index, ratio of IC50 for cytotoxicity against HBE (human bronchial epithelial) cells to IC50 for antiproliferative activity against human NCI-H446 cells; type: toxicity, cell-based; details: HBE (human bronchial epithelial) cells versus NCI-H446 cells, read-out: Ratio IC50

Structure (SMILES) | IC50 (NCI-H446 [3]) | IC50 (HepG2) | IC50 (A549) | IC50 at 48 h [1] | IC50 at 48 h [2] | Activity (NCI-H446 [4]) | selectivity ratio [5]
C=CCc1ccc(OCCC)c(-c2ccc(OCCCCCCCCCC[n+]3ccc(/C=C/c4c[nH]c5ccccc45)cc3)c(CC=C)c2)c1 | 6.51 µM | 8.13 µM | 9.45 µM | 16.5 µM | 12.3 µM | – | –
C=CCc1ccc(OCCCCCC[n+]2ccc(/C=C/c3c[nH]c4ccccc34)cc2)c(-c2ccc(OC)c(CC=C)c2)c1 | 2.7 µM | 1.79 µM | 2.54 µM | 6.17 µM | 3.88 µM | – | –
C[n+]1ccc(/C=C/c2c[nH]c3ccccc23)cc1 | > 60 µM | > 60 µM | > 60 µM | > 60 µM | > 60 µM | – | –
C=CCc1ccc(OCCCCCCCCCCOC(=O)Cc2c3[n+](cc4c(OC)c(OC)ccc24)CCc2cc4c(cc2-3)OCO4)c(-c2ccc(OCCC)c(CC=C)c2)c1 | 5.45 µM | 4.16 µM | 4.32 µM | 17.5 µM | 3.96 µM | – | –
C=CCc1ccc(OC)c(-c2ccc(OCCCCCCCCCC[n+]3ccc(/C=C/c4c[nH]c5ccccc45)cc3)c(CC=C)c2)c1 | 5.21 µM | 2.73 µM | 10.6 µM | 13.5 µM | 7.09 µM | – | –
C=CCc1ccc(OC)c(-c2ccc(OCCCCCC[n+]3ccc(/C=C/c4c[nH]c5ccccc45)cc3)c(CC=C)c2)c1 | 3.02 µM | 2.68 µM | 3.38 µM | 20.4 µM | 3.56 µM | – | –
C=CCc1ccc(OC(=O)Cc2c3[n+](cc4c(OC)c(OC)ccc24)CCc2cc4c(cc2-3)OCO4)c(-c2ccc(OC)c(CC=C)c2)c1 | 3.22 µM | 2.67 µM | 5.52 µM | 8.14 µM | 5 µM | – | –
C=CCc1ccc(OC(=O)Cc2c3[n+](cc4c(OC)c(OC)ccc24)CCc2cc4c(cc2-3)OCO4)c(-c2ccc(OCCC)c(CC=C)c2)c1 | 5.17 µM | 2.23 µM | 4.12 µM | 7.08 µM | 3.8 µM | – | –
C=CCc1ccc(OC)c(-c2ccc(OCCCCCCCCCCOC(=O)Cc3c4[n+](cc5c(OC)c(OC)ccc35)CCc3cc5c(cc3-4)OCO5)c(CC=C)c2)c1 | 1.57 µM | 2.4 µM | 2.7 µM | 5.01 µM | 2.01 µM | – | –
C=CCc1ccc(OC)c(-c2ccc(OCCC[n+]3ccc(/C=C/c4c[nH]c5ccccc45)cc3)c(CC=C)c2)c1 | 6.34 µM | 4.53 µM | 5.32 µM | 20.4 µM | 8.12 µM | – | –
C=CCc1ccc(OCCCOC(=O)Cc2c3[n+](cc4c(OC)c(OC)ccc24)CCc2cc4c(cc2-3)OCO4)c(-c2ccc(OCCC)c(CC=C)c2)c1 | 3.74 µM | 3.87 µM | 5.82 µM | 9.5 µM | 2.6 µM | – | –
C=CCc1ccc(OCCC)c(-c2ccc(OCCCOC(=O)Cc3c4[n+](cc5c(OC)c(OC)ccc35)CCc3cc5c(cc3-4)OCO5)c(CC=C)c2)c1 | 2.44 µM | 2.23 µM | 3.5 µM | 6.7 µM | 3.39 µM | – | –
C=CCc1ccc(OC)c(-c2ccc(OC(=O)Cc3c4[n+](cc5c(OC)c(OC)ccc35)CCc3cc5c(cc3-4)OCO5)c(CC=C)c2)c1 | 4.72 µM | 2.85 µM | 5.5 µM | 16.1 µM | 4.21 µM | – | –
C=CCc1ccc(OCCC[n+]2ccc(/C=C/c3c[nH]c4ccccc34)cc2)c(-c2ccc(OCCC)c(CC=C)c2)c1 | 1.74 µM | 1.14 µM | 1.69 µM | 9.47 µM | 1.77 µM | – | –
C=CCc1ccc(OCCC)c(-c2ccc(OCCCCCC[n+]3ccc(/C=C/c4c[nH]c5ccccc45)cc3)c(CC=C)c2)c1 | 2.88 µM | 2.03 µM | 2.04 µM | 7.78 µM | 1.85 µM | Active | –
C=CCc1ccc(OCCCCCCCCCC[n+]2ccc(/C=C/c3c[nH]c4ccccc34)cc2)c(-c2ccc(OC)c(CC=C)c2)c1 | 3.01 µM | 3.37 µM | 5.69 µM | 7.47 µM | 4.03 µM | – | –
C=CCc1ccc(OCCC)c(-c2ccc(OCCCCCCCCCCOC(=O)Cc3c4[n+](cc5c(OC)c(OC)ccc35)CCc3cc5c(cc3-4)OCO5)c(CC=C)c2)c1 | 7.87 µM | 7.89 µM | 6.21 µM | 10.7 µM | 4.39 µM | – | –
C=CCc1ccc(OCCCCCC[n+]2ccc(/C=C/c3c[nH]c4ccccc34)cc2)c(-c2ccc(OCCC)c(CC=C)c2)c1 | 3.28 µM | 2.35 µM | 4.93 µM | 11.1 µM | 2.34 µM | – | –
C=CCc1ccc(OC)c(-c2ccc(OCCCOC(=O)Cc3c4[n+](cc5c(OC)c(OC)ccc35)CCc3cc5c(cc3-4)OCO5)c(CC=C)c2)c1 | 3.53 µM | 3.14 µM | 7.74 µM | 21.6 µM | 4.76 µM | – | 3.53
C=CCc1ccc(OCCCCCCCCCCOC(=O)Cc2c3[n+](cc4c(OC)c(OC)ccc24)CCc2cc4c(cc2-3)OCO4)c(-c2ccc(OC)c(CC=C)c2)c1 | 3.01 µM | 1.94 µM | 1.88 µM | 5.83 µM | 5 µM | – | –
C=CCc1ccc(OCCCOC(=O)Cc2c3[n+](cc4c(OC)c(OC)ccc24)CCc2cc4c(cc2-3)OCO4)c(-c2ccc(OC)c(CC=C)c2)c1 | 7.08 µM | 6.6 µM | > 10 µM | 19.4 µM | 6.5 µM | – | –
C=CCc1ccc(OCCC[n+]2ccc(/C=C/c3c[nH]c4ccccc34)cc2)c(-c2ccc(OC)c(CC=C)c2)c1 | 3.29 µM | 1.75 µM | 3.27 µM | 9.84 µM | 4.62 µM | – | –
C=CCc1ccc(OCCCCCCCCCC[n+]2ccc(/C=C/c3c[nH]c4ccccc34)cc2)c(-c2ccc(OCCC)c(CC=C)c2)c1 | 7.57 µM | 5.23 µM | 8.07 µM | 17.3 µM | 6.98 µM | – | –

The next lines start with results.

IC50 (NCI-H446 [3]) | IC50 (HepG2) | IC50 (A549) | Structure (SMILES) | IC50 at 48 h [1] | IC50 at 48 h [2] | Activity (NCI-H446 [4]) | selectivity ratio [5]
1.72 µM | 4.23 µM | 1.53 µM | CCCCCCCCCCOC(=O)Cc1c2[n+](cc3c(OC)c(OC)ccc13)CCc1cc3c(cc1-2)OCO3 | 4.35 µM | 3.83 µM | – | –
> 50 µM | > 50 µM | > 50 µM | COc1ccc2cc3[n+](cc2c1OC)CCc1cc2c(cc1-3)OCO2 [BERBERINE CHLORIDE] | > 50 µM | > 50 µM | – | –
2.65 µM | 18.7 µM | 1.72 µM | CCCCCCCCc1c2[n+](cc3c(OC)c(OC)ccc13)CCc1cc3c(cc1-2)OCO3 | 0.79 µM | 14.7 µM | – | –
1.56 µM | 1.38 µM | 1.59 µM | C=CCc1ccc(OCCC)c(-c2ccc(OCCCCCCOC(=O)Cc3c4[n+](cc5c(OC)c(OC)ccc35)CCc3cc5c(cc3-4)OCO5)c(CC=C)c2)c1 | 3.59 µM | 4.28 µM | – | –
1.4 µM | 1.74 µM | 2.87 µM | C=CCc1ccc(OC)c(-c2ccc(OCCCCCCOC(=O)Cc3c4[n+](cc5c(OC)c(OC)ccc35)CCc3cc5c(cc3-4)OCO5)c(CC=C)c2)c1 | 5.09 µM | 4.37 µM | – | –
0.83 µM | 13.3 µM | 1.18 µM | CCCCCCCCCCc1c2[n+](cc3c(OC)c(OC)ccc13)CCc1cc3c(cc1-2)OCO3 | 1.52 µM | 3.8 µM | – | –
0.65 µM | 2.72 µM | 0.86 µM | CCCCCCCCCCCCc1c2[n+](cc3c(OC)c(OC)ccc13)CCc1cc3c(cc1-2)OCO3 | 1.23 µM | 2.78 µM | – | –
2.37 µM | 1.82 µM | 3.41 µM | C=CCc1ccc(OCCCCCCOC(=O)Cc2c3[n+](cc4c(OC)c(OC)ccc24)CCc2cc4c(cc2-3)OCO4)c(-c2ccc(OCCC)c(CC=C)c2)c1 | 7.08 µM | 5.7 µM | – | –
13 µM | > 10 µM | 6.11 µM | CCCCCCOC(=O)Cc1c2[n+](cc3c(OC)c(OC)ccc13)CCc1cc3c(cc1-2)OCO3 | 10.6 µM | 19 µM | – | –
> 10 µM | > 30 µM | 15.9 µM | CCCOC(=O)Cc1c2[n+](cc3c(OC)c(OC)ccc13)CCc1cc3c(cc1-2)OCO3 | > 30 µM | > 30 µM | – | –
5.06 µM | 3.02 µM | 5.98 µM | C=CCc1ccc(OCCC)c(-c2ccc(OC(=O)Cc3c4[n+](cc5c(OC)c(OC)ccc35)CCc3cc5c(cc3-4)OCO5)c(CC=C)c2)c1 | 17.9 µM | 3.39 µM | – | –
3.37 µM | 2.39 µM | 3.44 µM | C=CCc1ccc(OCCCCCCOC(=O)Cc2c3[n+](cc4c(OC)c(OC)ccc24)CCc2cc4c(cc2-3)OCO4)c(-c2ccc(OC)c(CC=C)c2)c1 | 7.06 µM | 5.7 µM | – | –
